{
  "source": "ChEMBL document CHEMBL3860052",
  "about": "“Anti-influenza activity of monoterpene-derived substituted hexahydro-2H-chromenes” (Bioorg Med Chem, 2016)",
  "key": {"[1]": {"test": "Antiviral activity against Influenza A virus (A/California/07/2009(H1N1))", "assay_type": "functional"}, "[2]": {"test": "Cytotoxicity against MDCK cells assessed as reduction in cell viability after 48 hrs by MTT assay", "assay_type": "toxicity, cell-based, Canis lupus familiaris", "conditions": "dog"}, "[3]": {"test": "Antiviral activity against Influenza A virus (A/California/07/09(H1N1)) pdm09 infected in chicken erythrocytes incubated for 1 hr with supernatants from 1 hr compound pre-treated MDCK cells infected with Influenza A virus (A/California/07/2009(H1N1)) pdm09 for 48 hrs assessed as reduction in viral replication by hemagglutination assay", "assay_type": "functional, cell-based"}, "[4]": {"test": "Selectivity index, ratio of CC50 for MDCK cells to IC50 for Influenza A virus (A/California/07/09(H1N1)) pdm09", "assay_type": "functional"}},
  "data": [
    {"compound": "C=C(C)[C@@H]1CC=C(C)[C@@H](O)[C@@H]1O", "values": [
      {"measurement": "IC50", "setting": "[1]", "value": 20, "unit": "µg/mL"}
    ]},
    {"compound": "CC(N)C12CC3CC(CC(C3)C1)C2", "note": "(centres undefined) [RIMANTADINE]", "values": [
      {"measurement": "CC50 at 48 h", "setting": "[2]", "value": 350, "unit": "µM"},
      {"measurement": "IC50", "setting": "[3]", "value": 44, "unit": "µM"},
      {"measurement": "Ratio CC50/IC50", "setting": "[4]", "value": 8}
    ]}
  ]
}
